The values that follow come from article PMC5491903, “The Selective Phosphoinoside-3-Kinase p110δ Inhibitor IPI-3063 Potently Suppresses B Cell Survival, Proliferation, and Differentiation” (Frontiers in Immunology, 2017).

Series [1] concerns AKT phosphorylation in bone marrow-derived myeloid cells. Briefly: AKT phosphorylation in myeloid cells stimulated with macrophage colony stimulating factor. Format: cell-based. The conditions noted are these: data not shown.
The target of series [2] is T1, p110γ (Mus musculus, UniProt Q9JHG7). More on the design: method as in PMID 16789742. The conditions noted are these: read-out: biochemical IC50; cited from earlier work.
Series [3] deals with LPS-stimulated mouse B cells. Briefly: IgM secretion by ELISA. In kind it is cell-based. The conditions noted are these: supernatant after 3 days. The text has this:
We also evaluated plasmablast differentiation and IgM secretion in LPS-stimulated cells (Figure 5D). […] In cells treated with IPI-3063 or IPI-443, the highest concentrations inhibited plasmablast differentiation to the same degree as GDC-0941.
For cell culture ELISA to measure total IgM, supernatants from purified B cells stimulated with LPS were collected after 3 days and diluted 1:1,000 in 2% (wt/vol) BSA in PBS. Nunc Maxisorp plates (Thermo Fisher) were coated with anti-mouse IgM (RMM-1; BioLegend) at 10 µg/mL in 50 µL of total sample in PBS and allowed to incubate overnight at 4°C. Diluted supernatant samples were incubated on coated plates for 1 h at 37°C. HRP-conjugated rabbit anti-mouse IgM secondary antibody (Zymed) was used.
(In general: In an ELISA, binding on a coated surface is turned into a signal by an enzyme label.)

For series [4], the target named is T1, p110γ. The series can be described thus: isoform-specific cell-based assay, pAKT S473 ELISA. Also noted: endogenous in cells; host or cells: Raw264.7. The following applies: read-out: Cellular IC50. As to the method: (§1) Phospho-Akt1 (S473) sandwich ELISA antibody kit (Cell Signaling Technology, cat. no. 7143) was utilized to analyze pAKT signal in cells as described previously by Winkler et al. ([11]) (for data see Table 2). Briefly, SKOV3 and 786.0 cells were seeded into 96-well cell culture-graded plates at a density of […] per 200 µl culture media per well. Raji and Raw264.7 were seeded at the same density in FBS-free media. After overnight incubation at 5% CO2 and 37°C, the cells were treated with inhibitor for 30 min. Raji cells were stimulated with 10 µg/mL anti-human IgM (Jackson ImmunoResearch) for 30 min and Raw264.7 cells with 25 nM C5a (RnD Systems) for 3 min in the presence of inhibitor. SKOV3 and 786.0 cells were not stimulated. Medium was then aspirated and 50 µL/well of ice-cold lysis buffer was added. pAKT level was determined according to the manufacturer’s instruction.

Series [5] deals with T2, p110α (Homo sapiens, UniProt P42336).
T2 construct: heterodimers consisting of full length p110α, p110β, or p110δ catalytic subunit and the p85α regulatory subunit; purchased Millipore 14-602-K
Briefly: PI3K enzymatic assay (ADP-Glo) with purified enzymes. The following applies: purified enzyme, mean ± spread (n), read-out: Biochemical IC50. How it is done:
(§2) Human recombinant PI3K-α (cat. no. 14-602-K), -β (cat. no. 14-603-K), -δ (cat. no. 14-604-K), and -γ (cat. no. 14-558-K) were purchased from Millipore. Phosphatidylinositol 4,5 bis phosphate (diC8-PtdIns(4,5)P2) was purchased from Avanti Polar Lipids, Inc. PI3K-α, β, and δ are heterodimers consisting of full length p110α, p110β, or p110δ catalytic subunit and the p85α regulatory subunit. PI3K-γ is a monomer of the p110γ catalytic subunit. Samples of kinase (10 nM—α, β, and δ; 20 nM—γ) were incubated with inhibitor for 30 min at room temperature in reaction buffer (15 mM HEPES pH 7.4, 20 mM NaCl, 1 mM EGTA, 0.02% Tween 20, 10 mM MgCl2, 0.2 mg/mL bovine-γ-globulins) followed by addition of ATP/diC8-PtdIns(4,5)P2 mixture to give final concentrations of 3 mM ATP and 500 µM diC8-PtdIns(4,5)P2. Reactions were incubated at room temperature for 2 h, with PI3K activity assessed via the Promega ADP-Glo Max assay kit (cat. no. V7002) according to the manufacturer’s instruction. Plates were read on Envision plate reader in luminescence mode.
Background: In ADP-Glo the light output rises with the ADP produced.

In series [6] the target is T3, p110β (Homo sapiens, UniProt P42338). The series is described as above. More on the design: heterodimers consisting of full length p110α, p110β, or p110δ catalytic subunit and the p85α regulatory subunit; purchased Millipore 14-603-K. The following applies: purified enzyme, mean ± spread (n), read-out: Biochemical IC50. How it is done:
as §2

The target of series [7] is T3, p110β. Briefly: isoform-specific cell-based assay, pAKT S473 ELISA. The following applies: read-out: Cellular IC50. Also noted: endogenous in cells; host or cells: 786.0. How it is done: as §1
On the set-up of series [8]: method as in PMID 24211136. The following applies: cited from earlier work.

Where two headings read alike, the source gives them in different places.

T1 sequence (Q9JHG7 whole entry): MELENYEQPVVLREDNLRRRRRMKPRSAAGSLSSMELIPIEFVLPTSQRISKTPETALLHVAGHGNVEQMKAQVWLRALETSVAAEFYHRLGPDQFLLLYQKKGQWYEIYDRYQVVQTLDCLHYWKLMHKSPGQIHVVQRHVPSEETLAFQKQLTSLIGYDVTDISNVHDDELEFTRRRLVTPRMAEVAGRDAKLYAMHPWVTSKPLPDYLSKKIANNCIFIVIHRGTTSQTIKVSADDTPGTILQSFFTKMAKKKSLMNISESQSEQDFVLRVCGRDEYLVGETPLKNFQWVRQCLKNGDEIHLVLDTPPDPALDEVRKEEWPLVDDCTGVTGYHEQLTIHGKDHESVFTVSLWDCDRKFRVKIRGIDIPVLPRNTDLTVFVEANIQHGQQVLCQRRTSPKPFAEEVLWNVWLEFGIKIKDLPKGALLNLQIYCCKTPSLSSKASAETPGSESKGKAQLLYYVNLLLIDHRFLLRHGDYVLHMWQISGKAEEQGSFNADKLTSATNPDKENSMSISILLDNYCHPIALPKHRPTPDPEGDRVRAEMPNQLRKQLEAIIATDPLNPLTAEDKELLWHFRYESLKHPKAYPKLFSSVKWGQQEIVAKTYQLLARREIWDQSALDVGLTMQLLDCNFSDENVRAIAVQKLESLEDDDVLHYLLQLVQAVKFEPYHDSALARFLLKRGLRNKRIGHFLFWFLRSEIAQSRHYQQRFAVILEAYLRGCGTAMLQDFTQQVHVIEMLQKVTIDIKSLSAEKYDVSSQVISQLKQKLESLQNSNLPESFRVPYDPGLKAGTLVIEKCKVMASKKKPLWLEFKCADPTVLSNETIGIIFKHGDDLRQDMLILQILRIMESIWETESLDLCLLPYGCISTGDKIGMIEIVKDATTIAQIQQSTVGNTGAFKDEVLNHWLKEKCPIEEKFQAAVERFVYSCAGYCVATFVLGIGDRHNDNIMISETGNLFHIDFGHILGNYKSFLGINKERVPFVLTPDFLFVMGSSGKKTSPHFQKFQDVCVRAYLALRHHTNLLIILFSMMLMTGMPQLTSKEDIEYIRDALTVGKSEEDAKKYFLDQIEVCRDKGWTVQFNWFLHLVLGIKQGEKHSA
T3 sequence (P42338 whole entry): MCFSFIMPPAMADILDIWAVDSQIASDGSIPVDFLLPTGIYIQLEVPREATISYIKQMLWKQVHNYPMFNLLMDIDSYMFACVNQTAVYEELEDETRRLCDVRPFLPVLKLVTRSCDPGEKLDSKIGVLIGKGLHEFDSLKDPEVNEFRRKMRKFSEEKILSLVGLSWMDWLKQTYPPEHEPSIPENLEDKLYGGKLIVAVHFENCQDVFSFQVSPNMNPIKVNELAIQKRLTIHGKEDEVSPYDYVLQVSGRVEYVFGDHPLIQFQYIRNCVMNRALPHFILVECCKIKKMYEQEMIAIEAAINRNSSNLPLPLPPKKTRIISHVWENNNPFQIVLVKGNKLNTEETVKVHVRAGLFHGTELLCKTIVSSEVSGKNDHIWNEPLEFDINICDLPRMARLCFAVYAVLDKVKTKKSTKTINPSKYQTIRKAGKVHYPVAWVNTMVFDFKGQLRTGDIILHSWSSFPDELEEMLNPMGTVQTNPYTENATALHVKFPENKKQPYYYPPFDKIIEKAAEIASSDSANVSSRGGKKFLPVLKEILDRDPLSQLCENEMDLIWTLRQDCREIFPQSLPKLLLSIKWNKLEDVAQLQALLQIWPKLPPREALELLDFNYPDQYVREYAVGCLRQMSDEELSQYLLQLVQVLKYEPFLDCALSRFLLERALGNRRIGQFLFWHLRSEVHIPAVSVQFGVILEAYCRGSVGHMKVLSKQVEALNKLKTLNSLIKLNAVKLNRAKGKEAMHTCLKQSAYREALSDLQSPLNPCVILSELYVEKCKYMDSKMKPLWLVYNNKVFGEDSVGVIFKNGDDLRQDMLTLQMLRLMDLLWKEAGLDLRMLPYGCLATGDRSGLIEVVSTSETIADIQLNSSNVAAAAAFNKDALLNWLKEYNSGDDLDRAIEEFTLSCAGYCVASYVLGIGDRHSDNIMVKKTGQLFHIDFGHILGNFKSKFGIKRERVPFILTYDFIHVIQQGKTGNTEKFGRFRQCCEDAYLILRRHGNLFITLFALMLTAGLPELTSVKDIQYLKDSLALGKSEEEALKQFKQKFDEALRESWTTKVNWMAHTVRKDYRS
T3 sequence (P27986 whole entry partner): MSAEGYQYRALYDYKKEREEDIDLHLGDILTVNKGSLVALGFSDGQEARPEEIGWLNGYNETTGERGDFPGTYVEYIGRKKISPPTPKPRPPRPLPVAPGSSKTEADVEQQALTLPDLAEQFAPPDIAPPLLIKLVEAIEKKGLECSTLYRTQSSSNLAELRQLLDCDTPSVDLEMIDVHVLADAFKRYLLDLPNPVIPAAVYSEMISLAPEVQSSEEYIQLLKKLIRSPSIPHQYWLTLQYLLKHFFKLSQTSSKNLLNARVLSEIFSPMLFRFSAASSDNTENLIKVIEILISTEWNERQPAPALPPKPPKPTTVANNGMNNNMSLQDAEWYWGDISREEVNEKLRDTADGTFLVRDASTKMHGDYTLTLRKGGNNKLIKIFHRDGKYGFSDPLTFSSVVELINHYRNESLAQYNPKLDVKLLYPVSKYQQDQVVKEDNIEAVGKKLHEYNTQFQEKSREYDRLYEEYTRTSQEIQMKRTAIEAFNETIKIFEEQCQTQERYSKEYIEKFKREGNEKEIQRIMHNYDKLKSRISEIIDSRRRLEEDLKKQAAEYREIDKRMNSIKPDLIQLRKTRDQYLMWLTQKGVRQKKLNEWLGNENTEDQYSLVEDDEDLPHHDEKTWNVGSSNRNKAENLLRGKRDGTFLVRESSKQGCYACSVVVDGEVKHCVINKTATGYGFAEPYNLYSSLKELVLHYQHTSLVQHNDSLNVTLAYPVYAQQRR
T2 sequence (P42336 whole entry): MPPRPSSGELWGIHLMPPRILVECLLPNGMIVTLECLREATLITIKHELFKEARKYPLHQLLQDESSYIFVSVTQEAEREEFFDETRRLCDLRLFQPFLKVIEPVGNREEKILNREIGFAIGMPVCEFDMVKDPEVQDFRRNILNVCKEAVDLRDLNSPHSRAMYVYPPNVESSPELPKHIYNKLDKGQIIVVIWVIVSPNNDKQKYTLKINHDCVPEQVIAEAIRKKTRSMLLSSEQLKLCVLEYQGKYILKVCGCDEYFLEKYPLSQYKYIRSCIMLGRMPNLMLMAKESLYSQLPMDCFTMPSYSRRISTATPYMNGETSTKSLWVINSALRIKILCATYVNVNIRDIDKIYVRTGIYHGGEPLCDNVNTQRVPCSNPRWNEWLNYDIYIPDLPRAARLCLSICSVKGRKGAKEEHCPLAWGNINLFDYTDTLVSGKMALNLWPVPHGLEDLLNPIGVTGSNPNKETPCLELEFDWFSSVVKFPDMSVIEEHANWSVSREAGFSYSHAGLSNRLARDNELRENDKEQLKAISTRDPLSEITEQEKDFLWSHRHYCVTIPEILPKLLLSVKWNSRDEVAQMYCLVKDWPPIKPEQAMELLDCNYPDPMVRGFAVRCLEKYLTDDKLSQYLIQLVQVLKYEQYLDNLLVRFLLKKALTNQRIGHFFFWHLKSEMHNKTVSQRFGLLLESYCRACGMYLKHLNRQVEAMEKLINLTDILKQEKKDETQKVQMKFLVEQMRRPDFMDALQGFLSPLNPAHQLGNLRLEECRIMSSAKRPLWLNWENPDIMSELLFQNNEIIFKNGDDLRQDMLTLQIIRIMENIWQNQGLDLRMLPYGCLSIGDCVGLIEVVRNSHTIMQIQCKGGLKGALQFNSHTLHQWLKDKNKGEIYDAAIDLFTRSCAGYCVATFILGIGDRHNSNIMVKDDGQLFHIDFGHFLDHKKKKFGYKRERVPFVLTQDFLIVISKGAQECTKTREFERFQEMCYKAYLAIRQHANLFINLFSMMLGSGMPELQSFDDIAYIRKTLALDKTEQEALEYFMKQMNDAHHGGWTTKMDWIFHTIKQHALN
T2 sequence (P27986 whole entry partner): as the sequence (P27986 whole entry partner) above

Usually IC50 stands for the concentration needed to halve the response being measured. `O=C1NC(=O)/C(=C/c2ccc(-c3ccc(F)cc3O)o2)S1` [AS-252424, reference compound]: the “effect on AKT phosphorylation” value in series [1] is on record as “dose-dependent inhibition”. The 50% inhibitory concentration (IC50) in series [2] is 30 nM. In addition, the “effect on IgM secretion” value in series [3] is “no significant effect”.

Consider `CC(C)n1c([C@H](C)Nc2ncnc(N)c2C#N)cc2cccc(-c3ccc(=O)n(C)c3)c2c1=O` [IPI-3063], for which the IC50 worked out at 419 ± 117 nM in series [4], 1170 nM in series [5], 1510 nM in series [6] and 103 ± 35.7 nM in series [7]. The pharmacokinetics in mice entry in series [8] is on record as “good”.
